Data published in US6743413B1, “Suspension aerosol formulations” (3M Company, priority 1991, dated 2004).
“And” between values parts separate entries of the source, which are not always exact repeats. Equal entries are not always repeated.

Tests used:
Assay type in all cases: physicochemical
[1] = Visual assessment of suspension formulations by time lapse photography 10 and 30 seconds after agitation; parameters: key: + = visually acceptable formulation; − = visually unacceptable formulation; ? = border line acceptable formulation
Protocol: (§1) For each of the micronized drug substances A-G set forth below, formulations were prepared at drug concentrations of 0.017 percent, 0.039 percent, 0.083 percent, 0.41 percent, and 1.6 percent by weight based on the total weight of the formulation (corresponding to 0.20 mg/mL, 0.50 mg/mL, 1.0 mg/mL, 5.0 mg/Ml, and 20 mg/mL, respectively). The formulations were prepared by dispersing micronized drug in HFC 134a in a sealed 15 mL clear PET vial using ultrasonic energy.
Using time lapse photography 10 and 30 seconds after agitation the formulations were assessed as follows: […]
The formulations were photographed using time lapse photography at 10 and 30 seconds post agitation and were assessed as follows: […]

[2] = Visual observation of suspension aerosol formulations (dispersion, flocculation, settling, creaming, suitability for metered dose inhaler); conditions: Example 3: 1:1 (W/W) HFC 134a/HFC 227 versus corresponding formulations in HFC 134a alone
Protocol: as §1
For each propellant mix the range of drug concentrations used in Example 1 was used.
BDP formulations were prepared at 0.070 percent by weight (1.0 mg/mL) in HFC 227 and at 0.38 percent by weight (5.0 mg/mL) in a 1:1 mixture of HFC 227 and HFC 134a.
Formulations of salmeterol free base at 0.02 percent by weight and 0.05 percent by weight were prepared in HFC 134a and in HFC 227 by placing the drug and 5 mL of glass beads into a 15 mL glass vial, crimping on a continuous valve, and adding the appropriate amount of propellant. The formulations were shaken on a paint shaker for 10 min in order to disperse the drug.
The vial was then shaken on a paint shaker, chilled, and the contents transferred to 10 mL vials fitted with the metered dose valve. […] Valve delivery was measured through the life of the formulations.

[3] = Suspension aerosol particle size analysis (Malvern Mastersizer, laser diffraction); conditions: Example 7: 0.02 percent by weight in HFC 134a
Protocol: The particle size distribution of drug in the aerosol suspension is assayed by Malvern Mastersizer™ Particle Size Analyser using a suspending medium of 0.01 percent sorbitan trioleate in heptane.
Using a primed connector, shots are fired via an injection adapter into the Malvern sample cell containing the suspending medium. When a suitable level of obscuration (in the range 8.5-9) is achieved, analysis by laser diffraction is then performed.
The results below show the percentage by weight of particles having particle size below 10.7 μm, below 5.07 μm, and below 1.95 μm. The “Initial” entries represent the average of three independent determinations, and the “25° C.”, “CYC”, and “HHC” entries represent a single determination after one month under the indicated storage conditions.

[4] = Visual assessment of suspension formulations by time lapse photography 10 and 30 seconds after agitation; parameters: key: + = visually acceptable formulation; − = visually unacceptable formulation; ? = border line acceptable formulation; conditions: 10 and 30 seconds post agitation
[5] = Twin stage impinger deposition of emitted dose; conditions: Example 7: 0.02 percent by weight in HFC 134a
Source text: Glass impinger apparatus A (BP198 Appendix XV11C) is used. To determine the deposition of the emitted dose, the apparatus is assembled as described. The oral adapter is attached to the throatpiece of the apparatus, and a suitable pump is connected to the outlet of the apparatus. The air flow through the apparatus is 60 ±5 liters per minute measured at the inlet of the throat. […] Ten shots are then fired via the adapter into the apparatus from the canister.
The apparatus is then dismantled and each stage washed with the appropriate amount of methanol. The washings are assayed by HPLC to give the content of the drug found at each stage and also the material balance.

[6] = 1 Month CYC (cycled between 15° C. and 37° C.)
[7] = 1 Month HHC (approximately 40° C. and 85 percent relative humidity)
[8] = Initial (average of three determinations)

## COc1ccc(C[C@@H](C)NC[C@H](O)c2ccc(O)c(NC=O)c2)cc1.COc1ccc(C[C@@H](C)NC[C@H](O)c2ccc(O)c(NC=O)c2)cc1.O=C(O)/C=C/C(=O)O [Formoterol fumarate]
[1]; Example 1: drug concentration 0.017 % in HFC 134a alone
  visual assessment of formulation: +
[1]; Example 1: drug concentration 0.039 % in HFC 134a alone
  visual assessment of formulation: ?
[1]; Example 1: drug concentration 0.083 % in HFC 134a alone
  visual assessment of formulation: ?
[1]; Example 1: drug concentration 0.41 % in HFC 134a alone
  visual assessment of formulation: −
[1]; Example 1: drug concentration 1.63 % in HFC 134a alone
  visual assessment of formulation: +
[2]
  flocculation and sedimentation rate: reduced flocculation and a slower sedimentation rate
[3]; [6]
  particles with particle size <1.95 μm: 36.1 Percent by weight and 32.5 Percent by weight
  particles with particle size <5.07 μm: 92.9 Percent by weight and 92.5 Percent by weight
  particles with particle size <10.7 μm: 99.8 Percent by weight
[3]; [7]
  particles with particle size <1.95 μm: 33.5 Percent by weight and 34.9 Percent by weight
  particles with particle size <5.07 μm: 93.1 Percent by weight and 92.4 Percent by weight
  particles with particle size <10.7 μm: 99.8 Percent by weight and 99.7 Percent by weight
[3]; 1 Month stored at 25° C.
  particles with particle size <1.95 μm: 36.3 Percent by weight and 31.7 Percent by weight
  particles with particle size <5.07 μm: 93.6 Percent by weight and 94.8 Percent by weight
  particles with particle size <10.7 μm: 99.8 Percent by weight and 99.9 Percent by weight
[3]; [8]
  particles with particle size <1.95 μm: 32.2 Percent by weight and 30.5 Percent by weight
  particles with particle size <5.07 μm: 93.4 Percent by weight and 92.6 Percent by weight
  particles with particle size <10.7 μm: 99.6 Percent by weight and 98.0 Percent by weight
[4]; Example 3: drug concentration 0.015 % in 1:1 HFC 134a/HFC 227
  Assessment (visual): +
[4]; Example 3: drug concentration 0.038 % in 1:1 HFC 134a/HFC 227
  Assessment (visual): +
[4]; Example 3: drug concentration 0.076 % in 1:1 HFC 134a/HFC 227
  Assessment (visual): ?
[4]; Example 3: drug concentration 0.38 % in 1:1 HFC 134a/HFC 227
  Assessment (visual): ?
[4]; Example 3: drug concentration 1.5 % in 1:1 HFC 134a/HFC 227
  Assessment (visual): +
[5]; 1 Month (25° C.)
  % Stem/Adapter: 52.0% and 52.5%
  %Stage 1: 16.7% and 23.9%
  %Stage 2: 31.3% and 23.6%
[5]; 1 Month (CYC)
  % Stem/Adapter: 16.8% and 24.6%
  %Stage 1: 53.6% and 47.6%
  %Stage 2: 29.7% and 27.8%
[5]; 1 Month (HHC)
  %Stage 1: 37.0% and 60.4%
  %Stage 2: 29.0% and 24.3%
[5]; Initial
  % Stem/Adapter: 26.0% and 24.7% and 28.5%
  %Stage 1: 37.5% and 35.3% and 36.7%
  %Stage 2: 36.5% and 40.0% and 34.8%
